Measured values taken from patent publication US20150105252A1, “SUBSTITUTED PYRAZOLES AS HERBICIDES” (E I DU PONT DE NEMOURS AND COMPANY, priority 2013, published 2015).

What was measured:
[1] = system: nutsedge, yellow; assay: Test C preemergence; assay type: in vivo, Cyperus esculentus; settings: preemergence
Outline: (§1)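 In this greenhouse assay, seeded soil (loam plus sand) or emerged seedlings in peat-vermiculite medium were treated with formulated compound. Roughly two weeks later (13–15 days), each species was scored visually relative to controls, from 0 for no effect to 100 for complete control.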

[2] = system: velvetleaf; assay: Test C postemergence; assay type: in vivo, Abutilon theophrasti; settings: postemergence
Outline: as §1

[3] = system: corn; assay: Test C preemergence; assay type: in vivo, Zea mays; settings: preemergence
Outline: as §1

[4] = system: barnyardgrass; assay: Test C postemergence; assay type: in vivo, Echinochloa crus-galli
Outline: as §1

[5] = system: lambsquarters; assay: Test C preemergence; assay type: in vivo, Chenopodium album; settings: preemergence
Outline: as §1

[6] = system: crabgrass, large; assay: Test A preemergence; assay type: in vivo, Digitaria sanguinalis; settings: preemergence
Outline: (§2)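 Growth medium: loam soil blended with sand. Preemergence treatment used a directed soil spray right after planting; postemergence treatment targeted seedlings at one to two leaves (2–10 cm height). Response was judged by eye relative to untreated plants about 10 days later on a 0–100 control scale.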

[7] = system: waterhemp; assay: Test C preemergence; assay type: in vivo, Amaranthus rudis; settings: preemergence
Outline: as §1

[8] = system: blackgrass; assay: Test C postemergence; assay type: in vivo, Alopecurus myosuroides
Outline: as §1

[9] = system: oilseed rape; assay: Test C postemergence; assay type: in vivo, Brassica napus; settings: postemergence
Outline: as §1

[10] = system: wheat; assay: Test A preemergence; assay type: in vivo, Triticum aestivum; settings: preemergence
Outline: as §2

[11] = system: velvetleaf; assay: Test C preemergence; assay type: in vivo, Abutilon theophrasti; settings: preemergence
Outline: as §1

[12] = system: soybean; assay: Test C postemergence; assay type: in vivo, Glycine max; settings: postemergence
Outline: as §1

[13] = system: wheat; assay: Test A postemergence; assay type: in vivo, Triticum aestivum; settings: Postemergence
Outline: as §2

[14] = system: kochia; assay: Test C postemergence; assay type: in vivo, Kochia scoparia
Outline: as §1

[15] = 31 g ai/ha, visual rating, scale 0 to 100 (0 no effect, 100 complete control), 13 to 15 days
[16] = 62 g ai/ha, scale 0 to 100 (0 no effect, 100 complete control), 13 to 15 days
[17] = 125 g ai/ha, 13 to 15 days, scale 0 to 100, 0 = no effect, 100 = complete control
[18] = 250 g ai/ha, scale 0 to 100, 0 is no effect, 100 is complete control
[19] = 250 g ai/ha, scale 0 to 100 (0 no effect, 100 complete control)
[20] = Postemergence, 31 g ai/ha, visually evaluated after 13 to 15 days
[21] = postemergence, 62 g ai/ha, scale 0 to 100
[22] = postemergence, 250 g ai/ha, scale 0 to 100 (0 no effect, 100 complete control)
[23] = postemergence, 125 g ai/ha, scale 0 to 100, 0 no effect, 100 complete control
[24] = 125 g ai/ha, visual injury approx. 10 days after treatment
[25] = 500 g ai/ha, visual injury after approx. 10 days, 0 to 100 scale (0 no effect, 100 complete control)
[26] = 125 g ai/ha, scale 0 to 100, 0 no effect, 100 complete control

Compound: CCCNC(=O)c1cc(OCC)n(Cc2ccnc(C(F)(F)F)c2)n1 [Compound 187]
- Nutsedge, Yellow plant response rating [1, 15]: 25
- Nutsedge, Yellow plant response rating [1, 16]: 60
- Plant response rating, Nutsedge, Yellow [1, 17]: 85
- Nutsedge, Yellow plant response rating [1, 18]: 98
- Plant response rating, Velvetleaf [2, 19]: 65
- Velvetleaf plant response rating ([2]; scale 0 to 100): 55
- Corn plant response rating [3, 15]: 20
- Corn plant response rating [3, 16]: 85
- Plant response rating, Corn [3, 17]: 95
- Corn plant response rating [3, 18]: 98
- Plant response rating (scale of 0 to 100 where 0 is no effect and 100 is complete control), Barnyardgrass [4, 20]: 5
- Barnyardgrass plant response rating [4, 21]: 10
- Plant response rating, Barnyardgrass [4, 22]: 60
- Plant response rating, Barnyardgrass [4, 23]: 15
- Lambsquarters plant response rating [5, 15]: 100
- Lambsquarters plant response rating [5, 16]: 100
- Plant response rating, Lambsquarters [5, 17]: 100
- Lambsquarters plant response rating [5, 18]: 100
- Crabgrass, Large plant response rating (0 to 100 scale) [6, 24]: 100
- Crabgrass, Large plant response rating [6, 25]: 100
- Waterhemp plant response rating [7, 15]: 100
- Waterhemp plant response rating [7, 16]: 100
- Plant response rating, Waterhemp [7, 17]: 100
- Waterhemp plant response rating [7, 18]: 100
- Plant response rating (scale of 0 to 100 where 0 is no effect and 100 is complete control), Blackgrass [8, 20]: 10
- Blackgrass plant response rating [8, 21]: 5
- Plant response rating, Blackgrass [8, 22]: 80
- Plant response rating, Blackgrass [8, 23]: 30
- Oilseed Rape plant response rating ([9]; 62 g ai/ha, scale 0 to 100): 50
- Plant response rating, Oilseed Rape [9, 19]: 80
- Plant response rating, Oilseed Rape [9, 26]: 75
- Wheat plant response rating (0 to 100 scale) [10, 24]: 80
- Wheat plant response rating [10, 25]: 100
- Velvetleaf plant response rating [11, 15]: 95
- Velvetleaf plant response rating [11, 16]: 100
- Plant response rating, Velvetleaf [11, 17]: 100
- Velvetleaf plant response rating [11, 18]: 100
- Plant response rating, Soybean [12, 19]: 98
- Soybean plant response rating [12, 26]: 95
- Wheat plant response rating ([13]; 125 g ai/ha, 0 to 100 scale, 0 no effect, 100 complete control): 50
- Wheat plant response rating ([13]; 500 g ai/ha, 0 to 100 scale (0 no effect, 100 complete control)): 80
- Plant response rating (scale of 0 to 100 where 0 is no effect and 100 is complete control), Kochia [14, 20]: 85
- Kochia plant response rating [14, 21]: 90
- Plant response rating, Kochia [14, 22]: 90
- Plant response rating, Kochia [14, 23]: 90
